Results on twelve compounds are retold here after patent US20250177392A1, “BROAD SPECTRUM INHIBITORS OF CYTOMEGALOVIRUS” (MICROBIOTIX, INC., priority 2022, published 2025).

Values after ≈ are worked out from the molar mass of the structure shown.

A short description of data set [1]: Murine liver microsome stability. It is filed as in vitro ADME. The note with it: % remaining after 30 min at 37° C. in the presence of NADPH.
Another data set addresses CYP3A4 (Homo sapiens, UniProt P08684). In words: CYP3A4 inhibition at 10 μM. Format: in vitro ADME. Conditions: % inhibition of CYP3A4 at 10 μM.
A short description of data set [2]: Cytotoxicity (CC50) against Hela cells for 3 d. It is filed as cell-based. The note with it: human.
For the next data set, the system named is CMV AD169^IE2-YFP. Description: Anti-CMV activity (IC50) of NAPA compounds, AD169 IE2-YFP reporter virus high-content assay in fibroblasts. Conditions: Human betaherpesvirus 5, AD169, Fibroblast. It is filed as cell-based, Human cytomegalovirus. Here is the method: To identify CMV inhibitors, a high-content screening (HCS) early-stage-specific reporter assay using a CMV AD169 yellow-fluorescent protein (YFP) expressing virus (AD169^IE2-YFP) (Gardner et al., Antiviral Res., 113:49-61 (2015)) was developed to screen >112,000 compounds to identify potent inhibitors (IC50<10 μM) of cytomegalovirus having a minimal mammalian cytotoxicity (CC50) of preferably ≥100 μM. As a result, we have identified, isolated, and characterized a novel series of N-arylpyrimidinamines (NAPAs) that inhibit CMV infection. […] Further, the NAPA compounds are broadly effective at inhibiting virus infection of diverse strains and cell types.
The CMV IE1 and IE2 gene products are translated within 3-6 hours post infection (hpi) and function to stimulate viral promoters to initiate transcription of early and late viral genes (Cherrington et al., J. Virol., 63:1435-40 (1989); Meier et al., J. Virol., 71:1246-1255 (1997)). The CMV AD169 variant that expresses a viral protein chimera consisting of IE2-YFP (AD1691E2/YFP) was utilized to quantify virus infection in a high-throughput screen by a robust fluorescent signal localized exclusively to the nucleus (8-24 hpi) (Gardner et al., supra (2015); Cohen et al., Viruses, 8 (10): 295 (2016); Cohen et al., J. Virol., 90:10715-10727 (2016)). Using the AD1691E2-YFP reporter virus assay, a collection of the compound libraries (>112,000 compounds) was screened for inhibitors of the early stages of CMV replication using a confocal fluorescence microscopic plate reader (BioTek Cytation3). Infection was calculated as a percentage of nuclei containing YFP and cycloheximide (8 μM) was used as a positive control. The Z′ factor for the optimized assay was >0.5 which was sufficient to initiate screening.
We evaluated 300 primary hits using an assay funnel designed to prioritize compounds based on antiviral activity, specificity, and drug-like properties. This identified two candidates for hit-to-lead optimization that were not Pan Assay Interference compounds (PAINS) (Baell et al., J. Med. Chem., 53:2719-40 (2010); Capuzzi et al., J. Chem. Inf. Model 57:417-427 (2017); Dahlin et al., Assay Drug Dev. Technol., 14:168-174 (2016)). […] The NAPA series was chosen as the primary hit-to-lead series due to its synthetic accessibility and the >2-log range in potency observed in the preliminary SAR that provides a clear pathway to improving antiviral activity and drug-like properties.

A short description of data set [3]: Maximum solubility in water by nephlometry. It is filed as physicochemical. The note with it: Maximum solubility in water determined by nephlometry; for solubility kinetic: kinetic from dmso stock.
The subject of another data set is HCMV strain AD169^R. In words: CMV infection (neutralization) assay, GFP/IE1 readout 24 hpi, AD169^R. It is filed as cell-based, Human cytomegalovirus. Here is the method: (§1) Fibroblasts and ARPE-19 cells (10^4) were plated in 96-well plates (Greiner, Monroe, NC). The following day the cells were pretreated for 1 hour at 37° C. with increasing concentrations of the respective novel NAPA compounds described herein or DMSO in triplicate prior to infection with the respective viruses. At 18 hours post infection (hpi) cells were stained using a rabbit anti-IE1 antibody followed by an anti-rabbit Alexa 647 and measured using a Celigo Cytometer (Parsons et al., Antiviral Res., 193:105124 (2021); Stein et al., Nat. Commun., 10:2699 (2019)). Using the DMSO treated cells as 100% infection, the percent infection of the NAPA compound-treated cells was determined. The half maximal inhibitory (IC50) values were calculated using Prism9's nonlinear fit [inhibitor]-vs-response (four parameters) analysis of these averages and extrapolation to the concentration that would produce 50% infection relative to DMSO treatment.
(§2) To further evaluate the inhibitory properties of MBXC-4302 against CMV, we utilized the AD169 CMV virus strain containing the UL131-UL128 open reading frame of the HCMV strain TR and expressing EGFP (AD169^R) (Wang D. and Shenk T., Proc. Nat. Acad. Sci., USA, 102:18153-18158 (2005)) and TB40/E infection of human fibroblasts (NHDF) and ARPE-19 epithelial cells in the presence of increasing concentration of compound (FIG. 2A-D). Infection was analyzed 24 hours post infection (hpi) by measuring GFP fluorescence encoded by AD169^R or using an anti-IE1 antibody for staining TB40/E infected cells.
NAPA variants with modified groups were evaluated for inhibition of CMV infection in fibroblasts. AD169^R infected fibroblasts were treated with NAPA compounds MBX-4992, MBXC-4325, MBXC-4330, and MBXC-4336 (0-50 μM) and analyzed for infection at 24 hpi (FIG. 6A-D). The infected cells were probed for IE1 as an indication of virus infection.

A further data set deals with HCMV strain TB40/E. Description: CMV infection (neutralization) assay, IE1 immunostain 24 hpi, TB40/E. Format: cell-based, Human cytomegalovirus. The method, then: as §1, with “The half maximal inhibitory (IC50) values were calculated using Prism9's nonlinear fit [inhibitor]-vs-response (four parameters) analysis of these averages and extrapolation to the concentration that would produce 50% infection relative to DMSO treatment.” left out
as §2

Another data set relates to AD169^R (IE1 expression). In words: Western blot (immunoblot) of IE1 expression in AD169^R-infected cells. It is filed as cell-based, Human cytomegalovirus. Conditions: NHDF cells, 24 hpi; MBX-4992 1-10 μM, ganciclovir 5 μM, convallotoxin 0.01 μM. Here is the method:
The molecular weight markers and respective proteins are indicated.
FIGS. 12A and B are Western Blot assays showing that MBXC-4336 limits expression of IE1 in fibroblasts and epithelial cells. Total cell lysates from AD169^R-infected (MOI 0.2) NHDF (A) and ARPE-19 (B) cells pre-treated with DMSO, MBX-4336 (0, 1, 5, 10, or 20 μM), or heparin (50 μg/mL) collected at 48 hpi were subjected to Western blot analysis using a rabbit anti-IE-1 antibody (lanes 1-7) and an anti-GAPDH antibody (lanes 8-14) as a loading control. The molecular weight markers and respective proteins are indicated.
Total cell lysates from virus infected NHDF cells treated with compounds were created through SDS-lysis (10^4/100 uL of 1% SDS) of at least three rounds of heating at 95° C. for 3 min and vigorous agitation. The total cell lysates were resolved using an SDS-polyacrylamide gel (12.5%), transferred to a PVDF membrane using a semi-dry apparatus. The membrane was then incubated with 1% BSA/PBS for 1 hr at room temperature followed by incubation with anti-IE1 and anti-GAPDH. Finally, the respective secondary antibody conjugated with HRP was incubated with membrane followed by detection using ECL reagents (Millipore).
Next, inhibition of the expression of IE1 in AD169^R-infected cells treated with MBX-4992 was examined by immunoblot analysis (FIG. 4E). […] Collectively, these findings further indicate that MBX-4992 effectively prevents the expression of the immediate-early genes during a CMV infection.

Sequence of CYP3A4 (P08684 whole entry, species assumed): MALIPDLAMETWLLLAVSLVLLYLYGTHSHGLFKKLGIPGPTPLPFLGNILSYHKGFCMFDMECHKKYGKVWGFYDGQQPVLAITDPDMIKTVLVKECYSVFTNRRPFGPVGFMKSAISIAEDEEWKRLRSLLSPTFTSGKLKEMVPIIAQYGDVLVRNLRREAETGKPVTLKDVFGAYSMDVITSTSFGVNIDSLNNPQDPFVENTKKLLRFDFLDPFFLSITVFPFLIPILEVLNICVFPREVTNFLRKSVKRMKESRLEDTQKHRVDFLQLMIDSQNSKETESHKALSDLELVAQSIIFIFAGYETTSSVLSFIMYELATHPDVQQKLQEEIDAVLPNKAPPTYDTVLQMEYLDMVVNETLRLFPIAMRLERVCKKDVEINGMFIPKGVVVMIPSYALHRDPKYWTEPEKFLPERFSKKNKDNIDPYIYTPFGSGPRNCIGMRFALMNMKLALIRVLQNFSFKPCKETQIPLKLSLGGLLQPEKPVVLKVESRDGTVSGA

Regarding `Cc1ccc(Nc2nc(C)cc(Nc3ccc(NC(=O)c4ccco4)cc3)n2)cc1` [MBXC-4299], the MLMS in data set [1] turned out to be 68%. Further, on CYP3A4, the CYP is given as < 10%. The compound further registered a CC50 at 3 d in data set [2] of 5.5 µM. In the data set with CMV AD169^IE2-YFP, this compound had an IC50 of 0.32 µM.
In data set [2], `Cc1nc(Nc2ccc(NC(=O)c3cccs3)cc2)cc(N(C)C)n1` [MBXC-4294] gave a CC50 at 3 d of 57 µM. For the same compound, the IC50 in the data set on CMV AD169^IE2-YFP was > 40 µM.
`Cc1ccc(Nc2cc(C)nc(Nc3ccc(NC(=O)c4ccco4)cc3)n2)cc1` [MBXC-4304]: the MLMS in data set [1] was determined as 63%. For the same compound, the CYP at CYP3A4 was 16%. Besides, in data set [2], the CC50 at 3 d was determined as 5.8 µM. The compound also came in with an IC50 with CMV AD169^IE2-YFP of 0.48 µM.
Regarding `Cc1nc(Nc2ccc(NC(=O)c3ccco3)cc2)cc(N(C)C)n1` [MBX-4991], the MLMS in data set [1] is given as 65%. Also, at CYP3A4, the CYP is recorded as 18%. Besides, the CC50 at 3 d in data set [2] is > 100 µM. In addition, the solubility (kinetic) in data set [3] was > 200 µM. In the data set on CMV AD169^IE2-YFP, half-maximal inhibition (IC50) required 2.3 µM.
Regarding `Cc1nc(Nc2ccc(NC(=O)c3ccco3)cc2)cc(-n2cccn2)n1` [MBXC-4302], the MLMS in data set [1] was 62%. The IC50 was 5.8 µM with HCMV strain AD169^R (Human betaherpesvirus 5, AD169, ARPE-19); 3 µM in the data set on HCMV strain AD169^R (Human betaherpesvirus 5, AD169, NHDF); ~5.3 µM in the data set with HCMV strain TB40/E (Human betaherpesvirus 5, ARPE-19); ~5.3 µM in the data set on HCMV strain TB40/E (Human betaherpesvirus 5, NHDF); 3.2 µM with CMV AD169^IE2-YFP. Also, the CYP at CYP3A4 is <10%. The CC50 at 3 d in data set [2] was > 100 µM. In addition, in data set [3], the solubility (kinetic) was 12.5 µM (≈ 4.5 µg/mL).
In data set [2], `Cc1ccc(Nc2nc(C)cc(Nc3ccc(NS(=O)(=O)c4ccccc4)cc3)n2)cc1` [MBXC-4301] yielded a CC50 at 3 d of 11 µM. The compound further came in with an IC50 in the data set with CMV AD169^IE2-YFP of 24 µM.
For `Cc1cc(Nc2ccccc2)nc(Nc2ccc(NC(=O)c3ccc(Cl)cc3)cc2)n1` [MBXC-4303], in that order: 7 µM and 20 µM.
On to `CCNc1cc(Nc2ccc(NC(=O)c3ccco3)cc2)nc(C)n1` [MBXC-4298], for which, in data set [1], the MLMS was found to be 64%. The CYP on CYP3A4 was 50%. The compound further had a CC50 at 3 d in data set [2] of 29 µM. In addition, the kinetic solubility in data set [3] was found to be 200 µM (≈ 67.5 µg/mL). In the data set on CMV AD169^IE2-YFP, this compound yielded an IC50 of 3.7 µM.
In the case of `Cc1nc(Nc2ccc(NC(=O)c3ccco3)cc2)cc(N2CCCCC2)n1` [MBXC-4295], the MLMS in data set [1] is given as 36%. Further, the CYP at CYP3A4 is <10%. This compound came in with a CC50 at 3 d in data set [2] of 54 µM. In data set [3], this compound displayed a solubility (kinetic) of 50 µM (≈ 18.9 µg/mL). Besides, the IC50 in the data set on CMV AD169^IE2-YFP was determined as 0.46 µM.
With `Cc1ccc(Nc2nc(C)cc(Nc3ccc(NC(=O)Nc4cccc(Cl)c4)cc3)n2)cc1` [MBXC-4300], the MLMS result in data set [1] is “N/A 60%”. Also, the CYP result at CYP3A4 is on record as “N/A 10%”. This compound also came in with a CC50 at 3 d in data set [2] of 2.7 µM. For the same compound, the Sol entry in data set [3] is given as “N/A 3.1 μM”. The compound further gave an IC50 with CMV AD169^IE2-YFP of 3.8 µM.
For the compound `Cc1ccc(Nc2cc(Nc3ccc(NC(=O)c4ccco4)cc3)nc(C)n2)cc1` [MBXC-4297], in data set [1], the MLMS is 44%. Further, the CYP at CYP3A4 was <10%. The midpoint of cytotoxicity in data set [2], the CC50 at 3 d, lay at 21 µM. Besides, the kinetic solubility in data set [3] was determined as 25 µM (≈ 9.99 µg/mL). The compound also gave an IC50 with CMV AD169^IE2-YFP of 0.37 µM.
On to `C[C@@H]1O[C@@H](O[C@H]2CC[C@]3(C=O)[C@H]4CC[C@]5(C)[C@@H](C6=CC(=O)OC6)CC[C@]5(O)[C@@H]4CC[C@]3(O)C2)[C@H](O)[C@H](O)[C@H]1O` [convallatoxin, reference compound], for which, in the data set on AD169^R (IE1 expression), the “IE1 expression by immunoblot” value was “prevented infection”.
